US12521393B2, “Cytotoxicity targeting chimeras for CCR2-expressing cells” (GLAXOSMITHKLINE INTELLECTUAL PROPERTY DEVELOPMENT LIMITED, priority 2021, dated 2026)
Where a name gives a salt, the structure may show the parent alone.

System: endogenous target monocytes in human PBMC
Test: PBMC ex vivo monocyte depletion flow cytometry assay (Example 200)
Format: cell-based
Conditions: with anti-cotinine antibody (SEQ ID NO: 11/12), 18-24 hours, EC50 in molar, read-out: Ex Vivo Depletion Assay pEC50 (converted)
Protocol: A human PBMC (peripheral blood mononuclear cells) monocyte depletion flow cytometry assay was developed to screen compounds in a 384-well plate format. This assay incorporated endogenous natural killer cells to deplete endogenous target monocytes.
To screen compounds in the human PBMC monocyte depletion flow cytometry assay, 11-point dose-response curves were made from 1 mM stocks in neat DMSO by serially diluting an ARM compound of Formula (I) four-fold into a 384-well plate row-wise. These serially diluted compounds were then stamped into a flat bottom polypropylene 384-well plate (Greiner Bio-One) at 100 nL/well. Fifty microliters of 30 μg/mL anti-cotinine antibody having a heavy chain sequence of SEQ ID NO: 11 and a light chain sequence of SEQ ID NO: 12 (rabbit variable region with human IgG1 Fc domain containing a DE mutation (S239D/1332E)) that had been diluted in assay medium (RPMI 1640 (Gibco) containing 10% fetal bovine serum (Gibco), 1% Glutamax (Gibco) and 1% sodium pyruvate (Corning) was added to the wells of the plate. The plate was centrifuged for 1 min at 500 rpm (revolutions per minute) and then shaken for 5 min at room temperature. The plate was incubated for 15 minutes at 37° C./5% CO2.
Frozen PBMC cells (HemaCare BioResearch) were thawed and centrifuged at 1,200 rpm for 4 minutes. The cells were diluted to a cell density of 2×10^6 cells/mL in assay medium. Fifty microliters of the diluted cells were added to the wells of the plate. The plate was centrifuged for 1 min at 500 rpm and incubated for 18-24 hours at 37° C./5% CO2.
After 18-24 hours incubation, 2 μL of 6.25 μg human FC block (BD Pharmingen) that was diluted in assay medium was added to the wells of the plate. The plate was centrifuged for 1 minute at 500 rpm and then incubated at room temperature for 15 minutes. Five microliters of 750 nM Helix NP NIR (Biolegend) that had been diluted in assay medium was added to the wells of the plate. Nine microliters of antibody cocktail containing 1/5 diluted fluorescein isothiocyanate (FITC) labeled anti-CD45 antibody (Beckman Coulter), PC7 labeled anti-CD14 antibody (Beckman Coulter) and phyocoerythrin (PE) anti-CD4 antibody (Beckman Coulter) was then added to the wells of the plate. The plate was centrifuged for 1 min at 500 rpm and incubated for 30 minutes at 4-8° C. Samples from the plate were run on BD FACS Canto II flow cytometer and data was analyzed using FlowJo software.
ARMs compounds of Formula (I) of the invention were tested for the ability to deplete monocytes in the above assay in one or more experimental runs and the results are shown in Table 3 below. Potency of the compounds of the invention is reported as a pEC50 value. The pEC50 value is the negative log of the EC50 value, wherein the EC50 value is the half maximal effective concentration measured in molar (M). For compounds tested in more than one experimental run, the pEC50 value is reported as an average or as the individual values measured

Row | Compound | EC50 [nM]
1 | CC(C)N(C)[C@@H]1CC[C@H](N2CC[C@H](Nc3ncnc4ccc(C(F)(F)F)cc34)C2=O)[C@H](NC2CCC(C(=O)NCCOCCOCCNC(=O)[C@H]3CC(=O)N(C)[C@@H]3c3cccnc3)CC2)C1 (stereo partly drawn) [Example 68, (2S,3S)-N-(2-(2-(2-(4-(((1R,2S,5R)-5-(Isopropyl(methyl)amino)-2-((S)-2-oxo-3-((6-(trifluoromethyl)quinazolin-4-yl)amino)pyrrolidin-1-yl)cyclohexyl)amino)cyclohexane-1-carboxamido)ethoxy)ethoxy)ethyl)-1-methyl-5-oxo-2-(pyridin-3-yl)pyrrolidine-3-carboxamide] | 100000
2 | CC(C)N(C)[C@@H]1CC[C@H](N2CC[C@H](Nc3ncnc4ccc(C(F)(F)F)cc34)C2=O)[C@H](NC(=O)[C@H]2CC[C@@H](NC(=O)CCCOCCCOCCCNC(=O)[C@H]3CC(=O)N(C)[C@@H]3c3cccnc3)CC2)C1 [Example 193, (2S,3S)-N-(3-(3-(4-(((1S,4s)-4-(((1R,2S,5R)-5-(Isopropyl(methyl)amino)-2-((S)-2-oxo-3-((6-(trifluoromethyl)quinazolin-4-yl)amino)pyrrolidin-1-yl)cyclohexyl)carbamoyl)cyclohexyl)amino)-4-oxobutoxy)propoxy)propyl)-1-methyl-5-oxo-2-(pyridin-3-yl)pyrrolidine-3-carboxamide] | 0.2
3 | CC(C)N(C)[C@@H]1CC[C@H](N2CC[C@H](Nc3ncnc4ccc(C(F)(F)F)cc34)C2=O)[C@H](NC(=O)CCOCCOCCNC(=O)[C@@H]2CCCN2CCOCCNC(=O)[C@H]2CC(=O)N(C)[C@@H]2c2cccnc2)C1 [Example 118, (S)-N-(2-(2-(3-(((1R,2S,5R)-5-(Isopropyl(methyl)amino)-2-((S)-2-oxo-3-((6-(trifluoromethyl)quinazolin-4-yl)amino)pyrrolidin-1-yl)cyclohexyl)amino)-3-oxopropoxy)ethoxy)ethyl)-1-(2-(2-((2S,3S)-1-methyl-5-oxo-2-(pyridin-3-yl)pyrrolidine-3-carboxamido)ethoxy)ethyl)pyrrolidine-2-carboxamide] | 15.8
4 | CC(C)N(C)[C@@H]1CC[C@H](N2CC[C@H](Nc3ncnc4ccc(C(F)(F)F)cc34)C2=O)[C@H](NC(=O)[C@H]2CC[C@H](N3CCN(C(=O)CCOCCOCCNC(=O)[C@H]4CC(=O)N(C)[C@@H]4c4cccnc4)CC3)CC2)C1 [Example 96, (2S,3S)-N-(2-(2-(3-(4-((1R,4r)-4-(((1R,2S,5R)-5-(Isopropyl(methyl)amino)-2-((S)-2-oxo-3-((6-(trifluoromethyl)quinazolin-4-yl)amino)pyrrolidin-1-yl)cyclohexyl)carbamoyl)cyclohexyl)piperazin-1-yl)-3-oxopropoxy)ethoxy)ethyl)-1-methyl-5-oxo-2-(pyridin-3-yl)pyrrolidine-3-carboxamide] | 1
5 | CC(C)N(C)[C@@H]1CC[C@H](N2CC[C@H](Nc3ncnc4ccc(C(F)(F)F)cc34)C2=O)[C@H](NC(=O)[C@H]2CC[C@H](N3CCN(C4CC(CCNC(=O)[C@H]5CC(=O)N(C)[C@@H]5c5cccnc5)C4)CC3)CC2)C1 (stereo partly drawn) [Example 97, (2S,3S)-N-(2-(3-(4-((1R,4S)-4-(((1R,2S,5R)-5-(Isopropyl(methyl)amino)-2-((S)-2-oxo-3-((6-(trifluoromethyl)quinazolin-4-yl)amino)pyrrolidin-1-yl)cyclohexyl)carbamoyl)cyclohexyl)piperazin-1-yl)cyclobutyl)ethyl)-1-methyl-5-oxo-2-(pyridin-3-yl)pyrrolidine-3-carboxamide] | 0.0631
6 | CC(C)N(CCOCCOCCC(=O)N[C@H]1CC[C@@H](C(=O)N[C@@H]2C[C@H](N(C)C(C)C)CC[C@@H]2N2CC[C@H](Nc3ncnc4ccc(C(F)(F)F)cc34)C2=O)CC1)C(=O)CCCNC(=O)[C@H]1CC(=O)N(C)[C@@H]1c1cccnc1 [Example 177, (2S,3S)-N-(4-(Isopropyl(2-(2-(3-(((1S,4s)-4-(((1R,2S,5R)-5-(isopropyl(methyl)amino)-2-((S)-2-oxo-3-((6-(trifluoromethyl)quinazolin-4-yl)amino)pyrrolidin-1-yl)cyclohexyl)carbamoyl)cyclohexyl)amino)-3-oxopropoxy)ethoxy)ethyl)amino)-4-oxobutyl)-1-methyl-5-oxo-2-(pyridin-3-yl)pyrrolidine-3-carboxamide] | 0.251
7 | CN1C(=O)C[C@H](C(=O)NCCOCCOCCC(=O)N[C@H]2CC[C@@H](C(=O)N[C@@H]3C[C@H](NC(C)(C)C)CC[C@@H]3N3CC[C@H](Nc4ncnc5ccc(C(F)(F)F)cc45)C3=O)CC2)[C@H]1c1cccnc1 [Example 120, (2S,3S)-N-(2-(2-(3-(((1S,4s)-4-(((1R,2S,5R)-5-(tert-Butylamino)-2-((S)-2-oxo-3-((6-(trifluoromethyl)quinazolin-4-yl)amino)pyrrolidin-1-yl)cyclohexyl)carbamoyl)cyclohexyl)amino)-3-oxopropoxy)ethoxy)ethyl)-1-methyl-5-oxo-2-(pyridin-3-yl)pyrrolidine-3-carboxamide] | 1.26
8 | CC(C)N(C)[C@@H]1CC[C@H](N2CC[C@H](Nc3ncnc4ccc(C(F)(F)F)cc34)C2=O)[C@H](NC(=O)CCCNC(=O)CCCC(=O)NCCCOCCCNC(=O)C2CC(=O)N(C)C2c2cccnc2)C1 (stereo in doubt) [Example 21, N1-(4-(((1R,2S,5R)-5-(Isopropyl(methyl)amino)-2-((S)-2-oxo-3-((6-(trifluoromethyl)quinazolin-4-yl)amino)pyrrolidin-1-yl)cyclohexyl)amino)-4-oxobutyl)-N5-(3-(3-((2S,3S)-1-methyl-5-oxo-2-(pyridin-3-yl)pyrrolidine-3-carboxamido)propoxy)propyl)glutaramide] | 0.631
9 | CC(C)N(C)[C@@H]1CC[C@H](N2CC[C@H](Nc3ncnc4ccc(C(F)(F)F)cc34)C2=O)[C@H](NC(=O)c2cnn(C3CCN(C(=O)CCCCCCCCCCNC(=O)[C@H]4CC(=O)N(C)[C@@H]4c4cccnc4)CC3)c2)C1 [Example 156, N-((1R,2S,5R)-5-(Isopropyl(methyl)amino)-2-((S)-2-oxo-3-((6-(trifluoromethyl)quinazolin-4-yl)amino)pyrrolidin-1-yl)cyclohexyl)-1-(1-(11-((2S,3S)-1-methyl-5-oxo-2-(pyridin-3-yl)pyrrolidine-3-carboxamido)undecanoyl)piperidin-4-yl)-1H-pyrazole-4-carboxamide] | 0.794
10 | CC(C)N(C)[C@@H]1CC[C@H](N2CC[C@H](Nc3ncnc4ccc(C(F)(F)F)cc34)C2=O)[C@H](NC(=O)[C@H]2CC[C@H](N3CCC(C(=O)NCCOCCOCCNC(=O)[C@H]4CC(=O)N(C)[C@@H]4c4cccnc4)CC3)CC2)C1 [Example 135, 1-((1R,4r)-4-(((1R,2S,5R)-5-(Isopropyl(methyl)amino)-2-((S)-2-oxo-3-((6-(trifluoromethyl)quinazolin-4-yl)amino)pyrrolidin-1-yl)cyclohexyl)carbamoyl)cyclohexyl)-N-(2-(2-(2-((2S,3S)-1-methyl-5-oxo-2-(pyridin-3-yl)pyrrolidine-3-carboxamido)ethoxy)ethoxy)ethyl)piperidine-4-carboxamide 3Formic acid salt] | 1.58
11 | CC(C)N(C)[C@@H]1CC[C@H](N2CC[C@H](Nc3ncnc4ccc(C(F)(F)F)cc34)C2=O)[C@H](NC(=O)CCOCCC(=O)N2CCC3(CCC(C(=O)NCCNC(=O)[C@H]4CC(=O)N(C)[C@@H]4c4cccnc4)CC3)CC2)C1 [Example 167, 3-(3-(3-(((1R,2S,5R)-5-(Isopropyl(methyl)amino)-2-((S)-2-oxo-3-((6-(trifluoromethyl)quinazolin-4-yl)amino)pyrrolidin-1-yl)cyclohexyl)amino)-3-oxopropoxy)propanoyl)-N-(2-((2S,3S)-1-methyl-5-oxo-2-(pyridin-3-yl)pyrrolidine-3-carboxamido)ethyl)-3-azaspiro[5.5]undecane-9-carboxamide] | 1.58
12 | CC(C)N(C)[C@@H]1CC[C@H](N2CC[C@H](Nc3ncnc4ccc(C(F)(F)F)cc34)C2=O)[C@H](NC(=O)[C@H]2CC[C@@H](NC(=O)CCOCCNC(=O)CCOCCCNC(=O)[C@H]3CC(=O)N(C)[C@@H]3c3cccnc3)CC2)C1 [Example 101, (2S,3S)-N-(3-(3-((2-(3-(((1S,4s)-4-(((1R,2S,5R)-5-(Isopropyl(methyl)amino)-2-((S)-2-oxo-3-((6-(trifluoromethyl)quinazolin-4-yl)amino)pyrrolidin-1-yl)cyclohexyl)carbamoyl)cyclohexyl)amino)-3-oxopropoxy)ethyl)amino)-3-oxopropoxy)propyl)-1-methyl-5-oxo-2-(pyridin-3-yl)pyrrolidine-3-carboxamide] | 0.631
